Experimental data taken from publication PMC4861708 (Frontiers in Cell and Developmental Biology, 2016).
Values after ≈ are worked out from the molar mass of the structure shown. Where a SMILES comes first, the peptide text is derived from it. [ ]: non-standard residue; d: D form. The star is where a group is joined. Orn(α-tetramethylguanidino) = CN(C)C(=N[C@@H](CCCN)C(=O)*)N(C)C; Orn = NCCC[C@H](N)C(=O)O

Experiments:
[1] = system: K. pneumoniae DSM 681 (ATCC 10031); type: cell-based, Klebsiella pneumoniae; conditions: DSM 681, 24 h
Method: MICs of P. aeruginosa strains DSM 1117 (ATCC 27853), DSM 3227 (ATCC 19429), and DSM 9644 were determined in a microdilution broth assay using 50 or 100% MHB (11.5 and 23 g/L MHB, respectively) whereas MICs of E. coli DSM 1103 (ATCC 25922) and K. pneumoniae DSM 681 (ATCC 10031) were determined in TSB (30 g/L TSB). Peptides (1 g/L in water) were serially two-fold diluted in a 96-well microtiter plate (PS, sterile, flat bottom) in 50 μL of the corresponding medium to final concentrations of 512–4 μg/mL. Bacteria were grown in nutrient broth overnight and diluted to a cell concentration of 1.5 × 10^7 cells/mL in the corresponding medium. Cell densities were determined by using the McFarland standard as reference. An aliquot (50 μL) of the cell culture was added to each well and incubated (37°C, 24 h). The OD595 was determined in a SpectraMax 340PC (Molecular Devices, Sunnyvale, USA). Additionally, MIC values were also determined for high bacteria densities (5 × 10^8 cells/mL) corresponding to the conditions used for TEM, as described above.

HEK293 cells = test: in vitro; type: cell-based, human; conditions: 24 h
Method: (§1) Human embryonic kidney (HEK293) and HeLa cells were cultured in Dulbecco's modified Eagle's/Ham's F-12 medium [DMEM/F-12 (1:1)] supplemented with FBS (10% v/v), penicillin, and streptomycin (1000 units each). Primary rat cardiomyocytes (Innoprot, Elexalde Derio, Spain) were grown in medium supplemented with FBS (20% v/v), horse serum (5% v/v), L-glutamine (2 mmol/L), sodium pyruvate (2 mmol/L), MEM non-essential amino acids (Gibco, 0.1 mmol/L), penicillin, and streptomycin (1000 units each). Surfaces for cardiomyocyte growth were coated with attachment factor first. Cells (20,000/well) were seeded into a 96-well plate (PS, sterile, flat bottom), incubated for 24 h (37°C, 5% CO2), and washed twice with PBS (100 μl/well) prior to adding colorless medium (88 μL) and peptide solution (12 μL; 5, 2.5, 1.25, […], and 0.625 g/L in PBS). Positive controls were triton X-100 (1%, v/v) and melittin (60 mg/L) as lytic peptide, whereas PBS (12%, v/v) served as negative control. After an incubation period of 24 h, supernatant (25 μL) was mixed with lactate dehydrogenase (LDH) substrate (175 μL; 0.57 mmol/L sodium pyruvate, 0.24 mmol/L NADH disodium salt, 32 mmol/L potassium dihydrogen phosphate, 66 mmol/L dipotassium phosphate) in 96-well plates (PS, sterile, flat bottom). Absorbance was recorded at 340 nm every 3 min for 30 min on the Paradigm microplate reader. Due to the total release of LDH upon triton X-100 treatment, the control contained high LDH concentrations resulting in a fast substrate turnover that was only linear for the first 6 min.
(§2) The MTT cell viability assay relied on the same cell culture. Remaining medium was replaced by a mixture of fresh colorless medium (100 μL) and MTT (10 μL; 5 g/L in PBS) and incubated for 4 h (37°C, 5% CO2). A solution of sodium dodecyl sulfate (100 μL; 10%, w/v) dissolved in hydrochloric acid (10 mmol/L) was added, incubated (16 h), and the absorbance recorded at 590 nm relative to the reference at 650 nm (Paradigm microplate reader). The relative cell viability was calculated by [(ODPeptide − ODTriton)/(ODPBS − ODTriton)] × 100% and half-maximal inhibitory concentrations (IC50) with an Excel-template from cell biology protocols (www.sciencegateway.org/ protocols/cellbio/drug/hcic50.htm). For statistical analysis an unpaired t-test was applied using GraphPad Prism 5.0.

in vitro = type: cell-based, human; conditions: human
Method: as §1, §2

HeLa cells = test: in vitro; type: cell-based; conditions: 24 h
Method: as §1, §2

P. aeruginosa DSM 1117 = test: Transmission electron microscopy, morphological changes; type: cell-based, Pseudomonas aeruginosa; conditions: 1 h
Method: Peptide-bacteria mixtures were fixed (2% glutaraldehyde, 5 mmol/L CaCl2, 10 mmol/L MgCl2 in 0.1 mol/L sodium cacodylate buffer, pH 7.4) overnight at 4°C. […] Samples were rinsed with distilled water (5 × 10 min), incubated with aqueous uranylacetate (0.5% w/v) for 1 h at 4°C, washed with distilled water (3 × 10 min), and embedded in Epon. The hardened blocks were sectioned (50 nm) on a UCT ultramicrotome (Leica, Vienna, Austria), stained with uranyl acetate and lead citrate on an AC20 system (Leica), and visualized at a Tecnai 12 electron microscope (FEI, Eindhoven, The Netherlands) at 80 kV. Morphological effects were quantified on average for 25 cells per condition.

CC[C@H](C)[C@H](NC(=O)[C@H](CCCN)N=C(N(C)C)N(C)C)C(=O)N[C@@H](CCCN)C(=O)N[C@H](C(=O)N[C@@H](CCCN)C(=O)N[C@@H](CCCNC(=N)N)C(=O)N1CCC[C@H]1C(=O)N[C@H](C(=O)N[C@@H](Cc1ccc(O)cc1)C(=O)N[C@@H](CCCN)C(=O)N1CCC[C@H]1C(=O)N[C@@H](CCCNC(=N)N)C(=O)N1CCC[C@H]1C(=O)N[C@@H](CCCNC(=N)N)C(=O)N1CCC[C@H]1C(=O)N1CCC[C@H]1C(=O)N[C@@H](Cc1c[nH]cn1)C(=O)N1CCC[C@H]1C(=O)N[C@@H](CCCNC(=N)N)C(=O)N[C@@H](CC(C)C)C(=O)O)C(C)C)[C@@H](C)CC [Api795, gu-O(IO)2RPVYOPRPRPPHPRL-OH] ({Orn(α-tetramethylguanidino)}-I[Orn]I[Orn]RPVY[Orn]PRPRPPHPRL-OH)
MIC K. pneumoniae DSM 681 [1]: 8 µg/mL (≈ 3.18 µM)
IC50 on cell viability (HEK293 cells): >600 µg/mL
viability at 24 h, 0.6 g/L (in vitro): ~60%
IC50 on cell viability (HeLa cells): >600 µg/mL
Cells spongy (P. aeruginosa DSM 1117; 4 µg/mL): 0%
DNA/ribosomes relocalization: +++, extremely relocalized (P. aeruginosa DSM 1117; 4 µg/mL): 0%
DNA/ribosomes relocalization: ++, relocalized (P. aeruginosa DSM 1117; 4 µg/mL): 23%
DNA/ribosomes relocalization: +, starting (P. aeruginosa DSM 1117; 4 µg/mL): 37%
DNA/ribosomes relocalization: -, no (P. aeruginosa DSM 1117; 4 µg/mL): 40%
Membrane: b, broken (P. aeruginosa DSM 1117; 4 µg/mL): 0%
Membrane: i, intact (P. aeruginosa DSM 1117; 4 µg/mL): 100%
Membrane: r, ruptured (P. aeruginosa DSM 1117; 4 µg/mL): 0%
Ribosome clustering: +++, extremely clustered (P. aeruginosa DSM 1117; 4 µg/mL): 0%
Ribosome clustering: ++, clustered (P. aeruginosa DSM 1117; 4 µg/mL): 0%
Ribosome clustering: +, starting (P. aeruginosa DSM 1117; 4 µg/mL): 70%
Ribosome clustering: -, no (P. aeruginosa DSM 1117; 4 µg/mL): 30%
Vesicle release (P. aeruginosa DSM 1117; 4 µg/mL): 67%
dissociated Fragments: ++, long and thin (P. aeruginosa DSM 1117; 4 µg/mL): 3%
dissociated Fragments: +, small and thin (P. aeruginosa DSM 1117; 4 µg/mL): 3%
dissociated Fragments: -, no (P. aeruginosa DSM 1117; 4 µg/mL): 93%
dissociated Fragments: LV, large vesicles (P. aeruginosa DSM 1117; 4 µg/mL): 0%
Cells spongy (P. aeruginosa DSM 1117; 16 µg/mL): 0%
DNA/ribosomes relocalization: +++, extremely relocalized (P. aeruginosa DSM 1117; 16 µg/mL): 0%
DNA/ribosomes relocalization: ++, relocalized (P. aeruginosa DSM 1117; 16 µg/mL): 10%
DNA/ribosomes relocalization: +, starting (P. aeruginosa DSM 1117; 16 µg/mL): 40%
DNA/ribosomes relocalization: -, no (P. aeruginosa DSM 1117; 16 µg/mL): 50%
Membrane: b, broken (P. aeruginosa DSM 1117; 16 µg/mL): 0%
Membrane: i, intact (P. aeruginosa DSM 1117; 16 µg/mL): 100%
Membrane: r, ruptured (P. aeruginosa DSM 1117; 16 µg/mL): 0%
Ribosome clustering: +++, extremely clustered (P. aeruginosa DSM 1117; 16 µg/mL): 0%
Ribosome clustering: ++, clustered (P. aeruginosa DSM 1117; 16 µg/mL): 0%
Ribosome clustering: +, starting (P. aeruginosa DSM 1117; 16 µg/mL): 30%
Ribosome clustering: -, no (P. aeruginosa DSM 1117; 16 µg/mL): 70%
dissociated Fragments: ++, long and thin (P. aeruginosa DSM 1117; 16 µg/mL): 0%
dissociated Fragments: +, small and thin (P. aeruginosa DSM 1117; 16 µg/mL): 0%
dissociated Fragments: -, no (P. aeruginosa DSM 1117; 16 µg/mL): 100%
dissociated Fragments: LV, large vesicles (P. aeruginosa DSM 1117; 16 µg/mL): 0%
Cells spongy (P. aeruginosa DSM 1117; 64 µg/mL): 0%
DNA/ribosomes relocalization: ++, relocalized (P. aeruginosa DSM 1117; 64 µg/mL): 67%
DNA/ribosomes relocalization: +, starting (P. aeruginosa DSM 1117; 64 µg/mL): 10%
DNA/ribosomes relocalization: -, no (P. aeruginosa DSM 1117; 64 µg/mL): 10%
Membrane: b, broken (P. aeruginosa DSM 1117; 64 µg/mL): 10%
Membrane: i, intact (P. aeruginosa DSM 1117; 64 µg/mL): 90%
Membrane: r, ruptured (P. aeruginosa DSM 1117; 64 µg/mL): 3%
Ribosome clustering: +++, extremely clustered (P. aeruginosa DSM 1117; 64 µg/mL): 7%
Ribosome clustering: ++, clustered (P. aeruginosa DSM 1117; 64 µg/mL): 7%
Ribosome clustering: +, starting (P. aeruginosa DSM 1117; 64 µg/mL): 77%
Ribosome clustering: -, no (P. aeruginosa DSM 1117; 64 µg/mL): 10%
Vesicle release (P. aeruginosa DSM 1117; 64 µg/mL): 50%
dissociated Fragments: ++, long and thin (P. aeruginosa DSM 1117; 64 µg/mL): 3%
dissociated Fragments: +, small and thin (P. aeruginosa DSM 1117; 64 µg/mL): 0%
dissociated Fragments: -, no (P. aeruginosa DSM 1117; 64 µg/mL): 97%
dissociated Fragments: LV, large vesicles (P. aeruginosa DSM 1117; 64 µg/mL): 0%
Cells spongy (P. aeruginosa DSM 1117; 512 µg/mL): 10%
DNA/ribosomes relocalization: +++, extremely relocalized (P. aeruginosa DSM 1117; 512 µg/mL): 100%
DNA/ribosomes relocalization: ++, relocalized (P. aeruginosa DSM 1117; 512 µg/mL): 0%
DNA/ribosomes relocalization: +, starting (P. aeruginosa DSM 1117; 512 µg/mL): 0%
DNA/ribosomes relocalization: -, no (P. aeruginosa DSM 1117; 512 µg/mL): 0%
Membrane: b, broken (P. aeruginosa DSM 1117; 512 µg/mL): 80%
Membrane: i, intact (P. aeruginosa DSM 1117; 512 µg/mL): 20%
Membrane: r, ruptured (P. aeruginosa DSM 1117; 512 µg/mL): 63%
Ribosome clustering: +++, extremely clustered (P. aeruginosa DSM 1117; 512 µg/mL): 93%
Ribosome clustering: ++, clustered (P. aeruginosa DSM 1117; 512 µg/mL): 7%
Ribosome clustering: +, starting (P. aeruginosa DSM 1117; 512 µg/mL): 0%
Ribosome clustering: -, no (P. aeruginosa DSM 1117; 512 µg/mL): 0%
Vesicle release (P. aeruginosa DSM 1117; 512 µg/mL): 7%
dissociated Fragments: +, small and thin (P. aeruginosa DSM 1117; 512 µg/mL): 0%
dissociated Fragments: -, no (P. aeruginosa DSM 1117; 512 µg/mL): 87%
dissociated Fragments: LV, large vesicles (P. aeruginosa DSM 1117; 512 µg/mL): 0%
membranes ruptured, % of the cells (P. aeruginosa DSM 1117; 512 µg/mL): 80%
membranes ruptured, % of the cells (P. aeruginosa DSM 1117; 4 × MIC): 10%
